In patent US5786165A, “Herbicide test method” (Agrevo UK Limited, priority 1994, dated 1998):

Columns and labels:
plant AMP deaminase = assay: Plant AMP deaminase inhibition assay; format: biochemical, Pea seedlings; details: for IC50: 10 minute preincubation, substrate concentration 640 μM, read-out: 50% inhibition of AMP deaminase activity
Protocol: (§1) Pea seedlings were excised near soil level, the stems quickly washed with distilled water and then stood upright in a […] containing 2 ml of compound solution or water (control). A section (approx 2 mm) was cut from the base of the stem while it was immersed to prevent air locks from forming in the xylem. The seedlings were incubated in the light at room temperature (approx 20° C.) in a moving air stream. At intervals, individual seedlings were extracted and the levels of AMP deaminase determined by extraction in 2 volumes ice cold citrate buffer (0.1M, pH 7), 0.5 mM dithiothreitol using a pestle and mortar. The homogenate was passed through 6 layers of muslin and loaded onto a sephadex gel filtration column (1.5 cm×8 cm) which had previously been equilibrated with 30 mM citrate (pH 7.1), 50 mM KCl and 0.5% (w/v) BSA (Assay buffer). The protein was eluted using the assay buffer and used directly for the enzyme assay. The assay is based on the release of ammonia (McCullough (1967), Clinica Chimica Acta, 17, 297) and contained in a total volume of 0.5 ml 60 mM citrate buffer (pH 7.1 with 5M NaOH) 100 mM KCl, 0.1% (w/v) BSA and 5 mM AMP. The reaction was started by the addition of 50 μl extract. At 15 minute intervals from 0 to 60 minutes, the reaction was stopped by the addition of 420 μl reagent 1 (0.1M phenol, 0.17 mM sodium nitroprusside) immediately followed by 275 μl reagent 2 (0.125M NaOH, 0.38M Na2 HPO4 and 5 ml HOCl in a total volume of 500 ml). Following incubation for 60 minutes at 55° C., the absorbance of the solutions at 625 nm was determined.
Pea seedlings were grown as described in Test Example 2. The seedlings were harvested close to soil level and homogenized in 2 volumes of ice cold phosphate buffer (pH 7.5) containing 0.1 mM dithiothreitol and 0.4M sucrose using a Waring blender (1 minute, top speed). All of the following operations were carried out at 4° C. The homogenate was filtered through 6 layers of muslin and centrifuged at 100,000 g for 20 minutes to remove cell debris. To the resulting supernatant was added 40% (w/v) ammonium sulphate while stirring constantly. The precipitate was collected by centrifugation (12,000 g, 15 minutes) and dissolved in 30 ml phosphate buffer (pH 7.5), 0.1 mM dithiothreitol then dialyzed overnight against 2 l of the same buffer. Insolubles formed during the overnight dialysis were removed by centrifugation (7,000 g, 10 minutes). The supernatant was applied to a phospho-cellulose column (1.5×8 cm) which had been pre-equilibrated with 0.1M phosphate buffer (pH 7.5). After loading, the column was washed with 14 ml phosphate buffer (0.1M, pH 7.5) and the enzyme eluted with 0.6M phosphate buffer (pH 7.5). Activity was determined using the ammonia release assay described in Test Example 3 above.

[1] = system: crude, desalted homogenates from pea seedlings; assay: Adenylate metabolism pathway in a crude plant homogenate; format: in vitro ADME, Peas (Pisum sativum L var Onward); details: without ATP, 10 minutes at 25° C.
Protocol: Peas (Pisum sativum L var Onward) were grown in soil for 10 days at 25° C. with a 16 hour/8 hour light/dark cycle. The seedlings were harvested close to soil level and a crude homogenate of was prepared by homogenization in 2 volumes of ice cold buffer containing tris-HCl (0.1M, pH 7.4 with 5M NaOH), 0.1 mM dithiothreitol and 0.4M sucrose using a Waring blender (1 minute, top speed). The homogenate was passed through 6 layers of muslin and 2.5 ml desalted on a sephadex (Registered Trade Mark) PD10 column (1.5 cm×8 cm) which had been pre-equilibrated with the homogenization buffer. Protein was eluted using the same buffer. The assay contained, in a total volume of 250 μl, 50 mM Tris-HCl (pH 6.5), 50 mM KCl, 0.05% (w/v) BSA and […] protein. ATP (5 mM) was also included where indicated. The assay was started by the addition of [^14 C] adenosine (500 μM, 0.2 μCi). After incubation at 25° C. for 10 minutes, the reaction was stopped by the addition of 0.25 ml ice cold HClO4 (0.4M). Precipitated protein was removed by centrifugation (13,000 g, 2 minutes) and 0.4 ml of the resulting supernatant applied to phenylsilane bonded silica gel columns (500 mg) which had been previously washed with 2 volumes of methanol and then 2 ml 0.4M HClO4. Samples were eluted with 4 ml 0.4M HClO4. The pH of the eluate was adjusted on ice to between 5.5 and 7.0 with 5M KOH. The neutralised extract was centrifuged (13,000 g, 2 minutes) and evaporated to dryness in a Gyrovap (Registered Trade Mark). The sample was then re-dissolved in 0.5 ml 10 mM HCl and centrifuged (13,000 g, 2 minutes) prior to HPLC analysis. The products were analysed using reverse phase chromatography with a spherisorb (Registered Trade Mark) column (25 cm×0.46 cm), solvent 1: 95:5 10 mM KH2 PO4 : methanol; solvent 2: 88:12 10 mM KH2 PO4 : methanol, pH 5.3, step change at 6 minutes, Flow rate: 1 ml/minute.

[2] = system: extractable ATP levels in pea seedlings; assay: Measurement of extractable ATP levels; format: in vivo, Peas
Protocol: Peas were grown as described in Test Example 1 and exposed to carbocyclic coformycin via the transpiration stream as outlined in Test Example 3. Individual seedlings were rapidly frozen in liquid nitrogen. The frozen tissue was ground to a fine powder using a pestle and mortar then 1 ml ice cold 0.4M HClO4 was added. The frozen acid was ground to a fine powder tissue, the mixture allowed to thaw and then incubated on ice for 15 minutes. The extract was centrifuged (4,000 rpm, 5 minutes).
ATP measurements were made using the luciferase assay and a LUMAC Biocounter M2500 (6370 AC Landgraaf, The Netherlands). Samples were diluted 1:10,000 in water and 100 μl was assayed according to the manufacturer's instructions.

Pea seedlings = assay: In planta metabolism of carbocyclic coformycin; format: in vivo; details: 10 μM [3H] compound via the transpiration stream; 4 hours incubation
Protocol: Pea seedlings were grown as described in Test Example 2, harvested as described in Test Example 3 and then supplied with 10 μM (400 Ci mol^-1) [^3 H] carbocyclic coformycin via the transpiration stream. After incubation periods, pairs of seedlings were rapidly frozen in liquid nitrogen, ground to a fine powder and extracted in 2 ml ice cold 0.4M HClO4. The extracts were processed for HPLC analysis as described in Test Example 2 above except that the final sample was resuspended in 0.5 ml water instead of 10 mM HCl. [^3 H] carbocyclic coformycin and [^3 H] carbocyclic coformycin 5'-phosphate were separated using cation exchange chromatography with a Partisil (Registered Trade Mark) SCX column (8.0 cm×0.46 cm), 0.05M NH4 H2 PO4, pH 2.6; flow rate=2 ml/minute.

AMP deaminase = assay: Extractable levels of AMP deaminase in treated pea seedlings; format: in vivo
Protocol: as §1, with “At 15 minute intervals from 0 to 60 minutes, the reaction was stopped by the addition of 420 μl reagent 1 (0.1M phenol, 0.17 mM sodium nitroprusside) immediately followed by 275 μl reagent 2 (0.125M NaOH, 0.38M Na2 HPO4 and 5 ml HOCl in a total volume of 500 ml).” left out

[3] = target: T1, calf intestinal mucosa adenosine deaminase (Bos taurus, UniProt P56658); assay: Mammalian adenosine deaminase inhibition assay; format: biochemical
T1 construct: calf intestinal mucosa adenosine deaminase; purchased Sigma Chemical Company Limited; host or cells: calf intestinal mucosa
T1 sequence (P56658 whole entry): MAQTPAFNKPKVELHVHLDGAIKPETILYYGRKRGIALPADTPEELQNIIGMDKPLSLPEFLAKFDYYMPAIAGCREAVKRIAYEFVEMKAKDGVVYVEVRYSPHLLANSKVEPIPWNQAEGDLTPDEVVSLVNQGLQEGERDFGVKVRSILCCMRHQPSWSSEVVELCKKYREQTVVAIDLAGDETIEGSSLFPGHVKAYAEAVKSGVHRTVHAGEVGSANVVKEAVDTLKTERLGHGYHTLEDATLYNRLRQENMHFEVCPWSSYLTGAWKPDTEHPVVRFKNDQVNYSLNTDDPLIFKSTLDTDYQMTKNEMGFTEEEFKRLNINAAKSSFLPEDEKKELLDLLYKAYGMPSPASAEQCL
Protocol: Mammalian Adenosine Deaminase Inhibition Assay
A suitable source of enzyme is calf intestinal mucosa adenosine deaminase supplied by the Sigma Chemical Company Limited. The assay employed follows the protocol provided by the supplier and measures a decrease in absorption at 265 nm as the substrate adenosine is utilized. A 10 minute preincubation of enzyme and inhibitor prior to addition of the substrate was employed.

| Compound | inhibition of plant AMP deaminase (in words) (plant AMP deaminase) | IC50 (plant AMP deaminase) [nM] | % of radiolabel as ADP [1] [%] | % of radiolabel as AMP [1] [%] | % of radiolabel as ATP [1] [%] | % of radiolabel as IMP [1] [%] | % of radiolabel as inosine [1] [%] | % of radiolabel as adenosine ([1]; 500 µM) [%] | ATP levels relative to the control levels ([2]; 100 μM via the transpiration stream, 4 hours treatment, control 333 nmols ATP per gram fresh weight) | rise in extractable levels of ATP (in words) ([2]; in vivo) | major metabolite in planta (Pea seedlings) | extractable levels of AMP deaminase (in words) (AMP deaminase; applied to pea seedlings via the transpiration stream) | extractable levels of AMP deaminase, % of the control levels (AMP deaminase; treatment for 1 hour via the transpiration stream, control 19 μmols ammonia release per gram fresh weight per minute) | inhibition of mammalian adenosine deaminase (in words) [3] | IC50 ([3]; 10 minute preincubation, substrate concentration 60 μM, read-out: 50% inhibition of adenosine deaminase) [nM] |
| --- | --- | --- | --- | --- | --- | --- | --- | --- | --- | --- | --- | --- | --- | --- | --- |
| O=P(O)(O)OC[C@H]1C[C@@H](n2cnc3c2N=CNC[C@H]3O)[C@H](O)[C@@H]1O [carbocyclic coformycin 5'-phosphate] | potent inhibitor | 20 |  |  |  |  |  |  |  |  |  |  |  |  |  |
| Nc1ncnc2c1ncn2[C@@H]1O[C@H](CO)[C@@H](O)[C@H]1O [[^14 C adenosine, adenosine] |  |  | 0 | 0 | 0 | 0 | 0 | 100 |  |  |  |  |  |  |  |
| OC[C@H]1C[C@@H](n2cnc3c2N=CNC[C@H]3O)[C@H](O)[C@@H]1O [carbocyclic coformycin] | relatively poor inhibitor | 120000 |  |  |  |  |  |  | approximately twice | remarkable rise | co-chromatographed with authentic carbocyclic coformycin 5'-phosphate | rapid decrease | 20-30% | potent inhibitor | 25 |
